Test results reported in US11684599B2, “Very-long-chain polyunsaturated fatty acids, elovanoid hydroxylated derivatives, and methods of use” (Board of Supervisors of Louisiana State University and …, priority 2017, dated 2023).

What was measured:
[1] = system: cerebral cortical mixed neuronal cells or hippocampal neurons; experiment: Oxygen glucose deprivation (OGD) of neurons in culture, cell viability; format: cell-based, rat; settings: for neuroprotection against OGD-induced neuronal cell death: 200 nM, 500 nM or 1 μM added after 90 mins OGD and 2 h reoxygenation, Hoechst, calcein or MTT
Source text: (§1) Primary cultures of cortical and hippocampal neurons were harvested from 18-day-old embryos (E18) taken from timed-pregnant, two-month-old Sprague-Dawley (SD) rats (Charles River Lab., Wilmington, Mass.). Briefly, timed-pregnant SD rats were euthanized and embryos were collected in sterile conditions. Embryonic brains were dissected out by forceps on ice and placed in a petri dish containing ice-cold Hank's Balanced Salt Solution (HBSS) (GIBCO). Meninges were removed under a dissecting microscope and cortical tissues were chopped into small pieces with micro-spring scissors. These tissues were transferred to 15 ml tubes containing trypsin-EDTA (0.025% in HBSS) and DNase I. The tubes were incubated in 37° C. chamber for 15 mins and were agitated every 5 mins. After stopping the trypsinization with 5 ml 10% FBS, these tissues were triturated 15 times with a fire polished Pasteur pipet. Cell clumps were left to settle for 2 mins and the supernatant was transferred to a 15 ml Eppendorf tube. The supernatant was filtered through a 70 μm pore-sized filter (Corning cell strainer) and centrifuged for 5 mins at 1000 rpm. The cells were then resuspended in Neurobasal medium (GIBCO) containing 2% B27 (GIBCO) and 2% N2 (GIBCO) supplements, along with 0.5 mM glutamine, 50 U/ml penicillin/streptomycin.
Cells were counted using a Neubauer hemocytometer. 1×10^6 cells were seeded on poly-D-lysine-coated 12 well cell culture dish (CORNING) and cultured in incubator (37° C., 5% CO2). Culture medium was first replaced after 24 h, then half of the medium was replaced with fresh medium every three days. As a result, approximately, 90% purity of neurons was obtained as determined by class-III-β tubulin, GFAP and Hoechst 33258 staining. Cells were maintained in culture for about 2 weeks until they were exposed to uncompensated oxidative stress, OGD, or NMDA excitotoxicity.
An in vitro oxygen glucose deprivation (OGD) model was established. Primary cortical neurons were cultured from SD rat embryos. On day in vitro (DIV) 12, cells were washed with phosphate-buffered saline and incubated in glucose-free Neurobasal medium (GIBCO) for 30 mins. The cells were then placed in a modular incubator chamber and incubated in an anaerobic chamber (95% N2, 5% CO2) at 37° C. for 90 mins for OGD.
After 90 mins of OGD exposure, cells were returned to the original medium (Neurobasal medium (GIBCO) containing 2% B27 (GIBCO) and 2% N2 (GIBCO) supplements, along with 0.5 mM glutamine, 50 U/ml penicillin/streptomycin) and placed in a normoxic chamber (37° C., 5% CO2) for 2 h. […] a normoxic chamber (37° C., 5% CO2) for 12 h, after which cells were sampled and assayed for cell viability using different methods as previously described (25-28). Cerebral cortical mixed neuronal cells or hippocampal cells in culture were exposed to either NMDA or uncompensated oxidative stress (UOS) for 12 h by addition of either NMDA (25 μM, 50 μM, or 100 μM) concentration or by the addition of TNFα (10 ng/mL) and H2O2 (50 μM, 100 μM, or 200 μM). Cell viability and neuroprotection in the presence of ELV-N32, ELV-N34, 32:6, or 34:6 were assayed after 12 h.
Cells were washed with 1× Dulbecco's Phosphate Buffered Saline (DPBS) containing no calcium or magnesium (GIBCO) and fixed for 10 mins using ice-cold 4% paraformaldehyde (PFA) followed by 15 mins incubation in 100% methanol. Cells were washed with 1× Phosphate Buffered Saline (PBS) pH 7.4 (GIBCO) and incubated in PBS containing 20 μM Hoechst 33258 (Molecular Probes) for 20 mins. Cells were then washed 3 times with 1×PBS and stored in 1×PBS at 4° C. until they were imaged for microscopy.
One 4×4 tile mosaic was acquired from the center of each well using a Zeiss 510 Meta laser confocal microscope and LSM 510 Meta software. Images were imported into image analysis software ImageJ (National Institutes of Health, Bethesda, Md.) and batch processed using custom macros. […]

[2] = system: cerebral-cortical mixed neuronal cells; experiment: Uncompensated oxidative stress (TNFα plus H2O2) of neurons in culture; format: cell-based, rat; settings: 200 nM; TNFα 10 ng/mL and H2O2 (50, 100 or 200 μM), 12 h
Source text: as §1
Cells were counted using a Neubauer hemocytometer. 1×10^6 cells were seeded on poly-D-lysine-coated 12 well cell culture dish (CORNING) and cultured in incubator (37° C., 5% CO2). Culture medium was first replaced after 24 h, then half of the medium was replaced with fresh medium every three days. As a result, approximately, 90% purity of neurons was obtained as determined by class-III-β tubulin, GFAP and Hoechst 33258 staining. […]
One 4×4 tile mosaic was acquired from the center of each well using a Zeiss 510 Meta laser confocal microscope and LSM 510 Meta software. […] An Otsu auto threshold was applied to each image of Hoechst-stained nuclei, and the area of each detected object was recorded. […]

[3] = 250 nM added after OGD exposure
[4] = 500 nM, 90 min OGD, hippocampal (DIV 12) or cortical (DIV 28) culture

Row | Compound | neuroprotection after OGD by VLC-PUFA precursor [1, 3] | neuroprotection after OGD by VLC-PUFA precursor [1, 4] | neuroprotection against OGD-induced neuronal cell death [1] | neuroprotection against uncompensated oxidative stress [2]
1 | CC/C=C\C/C=C\C/C=C\C/C=C\C/C=C\C/C=C\CCCCCCCCCCCCC(=O)O [32:6n3, (14Z,17Z,20Z,23Z,26Z,29Z)-dotriaconta-14,17,20,23,26,29-hexaenoic acid] | provide neuroprotection | showed neuroprotection | – | –
2 | CC/C=C\C/C=C\C/C=C\C/C=C\C/C=C\C/C=C\CCCCCCCCCCCCCCC(=O)O [34:6n3, (16Z,19Z,22Z,25Z,28Z,31Z)-tetratriaconta-16,19,22,25,28,31-hexaenoic acid] | elicit neuroprotection | showed neuroprotection | – | –
3 | CC/C=C\C[C@H](O)\C=C/C=C/C=C/[C@H](O)C/C=C\C/C=C\CCCCCCCCCCCCC(=O)OC [ELV-N32-Me, methyl (14Z,17Z,20R,21E,23E,25Z,27S,29Z)-20,27-dihydroxydotriaconta-14,17,21,23,25,29-hexaenoate] | – | – | elicited neuroprotection | evoked neuroprotection
4 | CC/C=C\C[C@H](O)\C=C/C=C/C=C/[C@H](O)C/C=C\C/C=C\CCCCCCCCCCCCC(=O)[O-].[Na+] [ELV-N32-Na, sodium (14Z,17Z,20R,21E,23E,25Z,27S,29Z)-20,27-dihydroxydotriaconta-14,17,21,23,25,29-hexaenoate] | – | – | elicited neuroprotection | evoked neuroprotection
5 | CC/C=C\C[C@H](O)\C=C/C=C/C=C/[C@H](O)C/C=C\C/C=C\CCCCCCCCCCCCCCC(=O)OC [ELV-N34-Me, methyl (16Z,19Z,22R,23E,25E,27Z,29S,31Z)-22,29-dihydroxytetratriaconta-16,19,23,25,27,31-hexaenoate] | – | – | elicited neuroprotection | –
6 | CC/C=C\C[C@H](O)\C=C/C=C/C=C/[C@H](O)C/C=C\C/C=C\CCCCCCCCCCCCCCC(=O)[O-].[Na+] [ELV-N34-Na, sodium (16Z,19Z,22R,23E,25E,27Z,29S,31Z)-22,29-dihydroxytetratriaconta-16,19,23,25,27,31-hexaenoate] | – | – | elicited neuroprotection | neuroprotection elicited
